# In patent publication US12311058B2, “Single protein-encapsulated pharmaceutics for enhancing therapeutic effects” (priority 2018, dated 2025):
# Columns and labels:
# [1] = congestive heart failure incidents; cited from earlier work
# [2] = mouse model, documented; cited from earlier work
# [3] = system: breast cancer cell line, MDA-MB231; test: Xenograft model efficacy study, breast cancer MDA-MB231, in female athymic nude mice; details: iv; for % TGI, percent tumor growth inhibition compared to Group 1 / MTV (n) Day 20, median tumor volume: Doxorubicin 5, Composition 7 10, Mitoxantrone 3, Composition 6 6 mg/kg, Day 20
# Method: An efficacy study against breast cancer tumor was carried out on the materials from Example 8 (Composition 7) and Example 7 (Composition 6).
# [4] = Dialysis study on free form of doxorubicin, HSA/DOX mixture and Composition 7; type: physicochemical; details: PBS pH=7.4
# Method: The dialysis tube was sealed and put into a glass beaker containing 100 mL of either PBS buffer (pH=7.4) or acetate buffer (pH=5.5) with a magnetic stirring bar. With constant stirring, aliquots (500 uL) at different time points were taken from the glass beaker and analyzed by UV spectrometer. […] It is most interesting to notice that HSA-encapsulated DOX is almost 3.5 times faster at pH=5.5 than at pH=7.4 for being dialyzed out from the dialysis tube.
compound,measurement,setting,value
"COc1cccc2c1C(=O)c1c(O)c3c(c(O)c1C2=O)C[C@@](O)(C(=O)CO)C[C@@H]3O[C@H]1C[C@H](N)[C@H](O)[C@H](C)O1 [Doxorubicin, doxorubicin]",Lifetime limit (cumulative dose),[1],< 450 mg/m^2
same,Maximum tolerated dose (MTD),[2],5 mg/kg
same,Deaths NTR (non-treatment-related death),"[3]; qwk × 3, 20 day study",0
same,Deaths TR (treatment-related death),"[3]; qwk × 3, 20 day study",0
same,Regressions CR (complete regression),"[3]; qwk × 3, 20 day study",0
same,Regressions PR (partial regression),"[3]; qwk × 3, 20 day study",0
same,"% TGI, percent tumor growth inhibition compared to Group 1",[3]; qwk × 3,34%
same,"MTV (n) Day 20, median tumor volume",[3]; qwk × 3,453 (8) mm^2
same,Dialysis behaviour of free form,[4],precipitated in the dialysis bag due to the poor solubility at pH=7.4
"O=C1c2c(O)ccc(O)c2C(=O)c2c(NCCNCCO)ccc(NCCNCCO)c21 [Mitoxantrone, mitoxantrone]",Maximum tolerated dose (MTD),[2],3 mg/kg
same,Deaths NTR (non-treatment-related death),"[3]; qwk × 3, 20 day study",0
same,Deaths TR (treatment-related death),"[3]; qwk × 3, 20 day study",0
same,"Mean BW Nadir, lowest group mean body weight as % change from Day 1","[3]; qwk × 3, 20 day study",−0.2%
same,Regressions CR (complete regression),"[3]; qwk × 3, 20 day study",0
same,Regressions PR (partial regression),"[3]; qwk × 3, 20 day study",0
same,"% TGI, percent tumor growth inhibition compared to Group 1",[3]; qwk × 3,27%
same,"MTV (n) Day 20, median tumor volume",[3]; qwk × 3,498 (8) mm^2
same,Day of Mean BW Nadir,"[3]; mouse, in vivo",8 days
